Legend:
Format in all cases: in vivo, C57/BL6 mice
Details in all cases: 200 μl of 1% solution i.p., blood 16 hr later, vs saline
[1] = test system: neutrophils in the whole blood cells; assay: ratio of neutrophils in whole blood cells, Siemens Advia 120 (Examples 12, 13)
Description: About 3-month-old C57/BL6 mice were intraperitoneally injected with 200 μl of saline (control) or 1% solution of respective compounds (dissolved in saline). Blood was collected 16 hr later, and the ratio of neutrophils in the whole blood cells was measured using Siemens Advia 120.

[2] = test system: monocytes in the whole blood cells; assay: ratio of monocytes in whole blood cells, Siemens Advia 120 (Examples 10, 11)
Description: About 3-month-old C57/BL6 mice were intraperitoneally injected with 200 μl of saline (control) or 1% solution of respective compounds (dissolved in saline). Blood was collected 16 hr later, and the ratio of monocytes in the whole blood cells was measured using Siemens Advia 120.
About 3-month-old C57/BL6 mice were intraperitoneally injected with 200 μl of saline (control) or 1% allyl isothiocyanate solution (dissolved in saline). Blood was collected 16 hr later, and the ratio of monocytes in the whole blood cells was measured using Siemens Advia 120.

[3] = test system: basophils in the whole blood cells; assay: ratio of basophils in whole blood cells, Siemens Advia 120 (Example 14)
Description: About 3-month-old C57/BL6 mice were intraperitoneally injected with 200 μl of saline (control) or 1% solution of respective compounds (dissolved in saline). Blood was collected 16 hr later, and the ratio of basophils in the whole blood cells was measured using Siemens Advia 120.

[4] = test system: neutrophils in the peripheral blood; assay: number of neutrophils in peripheral blood, Siemens Advia 120 (Examples 4, 5)
Description: About 3-month-old C57/BL6 mice were intraperitoneally injected with 200 μl of saline (control) or 1% solution of respective compounds (dissolved in saline). Blood was collected 16 hr later, and the number of neutrophils in the peripheral blood was measured using Siemens Advia 120.

[5] = test system: basophils in the peripheral blood; assay: number of basophils in peripheral blood, Siemens Advia 120 (Example 8)
Description: About 3-month-old C57/BL6 mice were intraperitoneally injected with 200 μl of saline (control) or 1% solution of respective compounds (dissolved in saline). Blood was collected 16 hr later, and the number of basophils in the peripheral blood was measured using Siemens Advia 120.

[6] = test system: monocytes in the peripheral blood; assay: number of monocytes in peripheral blood, Siemens Advia 120 (Examples 6, 7)
Description: About 3-month-old C57/BL6 mice were intraperitoneally injected with 200 μl of saline (control) or 1% solution of respective compounds (dissolved in saline). Blood was collected 16 hr later, and the number of monocytes in the peripheral blood was measured using Siemens Advia 120.
About 3-month-old C57/BL6 mice were intraperitoneally injected with 200 μl of saline (control) or 1% allyl isothiocyanate solution (dissolved in saline). Blood was collected 16 hr later, and the number of monocytes in the peripheral blood was measured using Siemens Advia 120.

Row | Molecule | ratio of neutrophils in the whole blood cells [1] | neutrophils in the peripheral blood (number) [4] | further results
1 | 2-Methyl-(3 or 5 or 6)-methylthio pyrazine [2-Methyl-(3 or 5 or 6)-methylthio pyrazine (mixture of isomers)] | increases |  | ratio of monocytes in the whole blood cells [2]: increases
2 | c1coc(Cn2cccc2)c1 [1-Furfurylpyrrole] | increases |  | 
3 | CC1(C)NCCS1 [2,2-Dimethylthiazolidine] | increases |  | ratio of basophils in the whole blood cells [3]: increases
4 | CCc1nccnc1CC [2,3-Diethylpyrazine] | increases | increase | 
5 | CC1NCCSC1C (centres unmarked) [2,3-Dimethylthiomorpholine] |  |  | ratio of monocytes in the whole blood cells [2]: increases
6 | Cc1nc(C)c(C)s1 [2,4,5-Trimethylthiazole] | increases |  | 
7 | Cc1c[nH]c(C)c1 [2,4-Dimethylpyrrole] | increases |  | 
8 | Cc1ccc(C)o1 [2,5-Dimethylfuran] |  |  | number of basophils in the peripheral blood [5]: increases
9 | Cc1cccc(C)n1 [2,6-Lutidine] |  |  | ratio of basophils in the whole blood cells [3]: increases; number of basophils in the peripheral blood [5]: increases
10 | C=CCSC1=NCCS1 [2-(Allylthio)-2-thiazoline] |  |  | number of monocytes in the peripheral blood [6]: increase; ratio of monocytes in the whole blood cells [2]: increases
11 | CSC1=NCCS1 [2-(Methylthio)-2-thiazoline] | increases | increase | 
12 | CSc1nc2ccccc2s1 [2-(Methylthio)benzothiazole] | increases | increase | 
13 | CC(=O)c1cccn1C [2-Acetyl-1-methylpyrrole] | increases | increase | 
14 | CCc1nccnc1C(C)=O [2-Acetyl-3-ethylpyrazine] | increases |  | ratio of basophils in the whole blood cells [3]: increases; ratio of monocytes in the whole blood cells [2]: increases
15 | CC(=O)c1ccc[nH]1 [2-Acetylpyrrole] | increases | increase | 
16 | CC(=O)c1nccs1 [2-Acetylthiazole] | increases |  | ratio of basophils in the whole blood cells [3]: increases
17 | Clc1nccs1 [2-Chlorothiazole] | increases |  | ratio of basophils in the whole blood cells [3]: increases
18 | CCOc1nccs1 [2-Ethoxythiazole] | increases | increase | ratio of monocytes in the whole blood cells [2]: increases
19 | CCc1ccco1 [2-Ethylfuran] |  |  | ratio of basophils in the whole blood cells [3]: increases

Row | Molecule | ratio of neutrophils in the whole blood cells [1] | neutrophils in the peripheral blood (number) [4] | further results
20 | CCc1ccc[nH]1 [2-Ethylpyrrole] | increases |  | ratio of basophils in the whole blood cells [3]: increases
21 | CCc1cccs1 [2-Ethylthiophene] |  | increase | 
22 | Cc1nccnc1SCc1ccco1 [2-Furfurylthio-3-methylpyrazine] | increases | increase | number of monocytes in the peripheral blood [6]: increase; ratio of monocytes in the whole blood cells [2]: increases
23 | CCCCCCc1cccs1 [2-Hexylthiophene] | increases | increase | 
24 | CC1=NC(CC(C)C)SC1C (centres unmarked) [2-Isobutyl-4,5-dimethyl-3-thiazoline] |  | increase | 
25 | CC(C)Cc1nccs1 [2-Isobutylthiazole] | increases |  | 
26 | Cc1csc(C(C)C)n1 [2-Isopropyl-4-methylthiazole] | increases |  | ratio of basophils in the whole blood cells [3]: increases
27 | SC1=NCCS1 [2-Mercaptothiazoline] | increases | increase | number of monocytes in the peripheral blood [6]: increase; ratio of basophils in the whole blood cells [3]: increases; ratio of monocytes in the whole blood cells [2]: increases
28 | Cc1ccco1 [2-Methylfuran] |  |  | ratio of basophils in the whole blood cells [3]: increases; number of basophils in the peripheral blood [5]: increases
29 | Cc1cc2ccccc2[nH]1 [2-Methylindole] |  |  | ratio of monocytes in the whole blood cells [2]: increases
30 | Cc1nccs1 [2-Methylthiazole] | increases |  | ratio of basophils in the whole blood cells [3]: increases
31 | CC1CNCCS1 (centres unmarked) [2-Methylthiomorpholine] | increases | increase | 
32 | Cc1cccs1 [2-Methylthiophene] | increases |  | 
33 | CCC(=O)c1cccs1 [2-Propionyl thiophene] | increases |  | 
34 | O=C1CSc2ccccc2N1 [2H-1,4-benzothiazin-3(4H)one] | increases | increase | 
35 | CSCCCN=C=S [3-(Methylthio)propyl isothiocyanate] |  | increase | 
36 | CC(=O)c1cc(C)oc1C [3-Acetyl-2,5-dimethylfuran] |  |  | ratio of basophils in the whole blood cells [3]: increases
37 | CC(=O)c1cc(C)sc1C [3-Acetyl-2,5-dimethylthiophene] | increases | increase | ratio of basophils in the whole blood cells [3]: increases; ratio of monocytes in the whole blood cells [2]: increases
38 | CC(=O)c1cccnc1 [3-Acetylpyridine] | increases | increase | 

Row | Molecule | ratio of neutrophils in the whole blood cells [1] | neutrophils in the peripheral blood (number) [4] | further results
39 | Clc1ccsc1 [3-Chlorothiophene] | increases | increase | ratio of basophils in the whole blood cells [3]: increases; ratio of monocytes in the whole blood cells [2]: increases
40 | Cc1cc[nH]c1 [3-Methylpyrrole] | increases |  | 
41 | Cc1ccsc1 [3-Methylthiophene] |  |  | ratio of basophils in the whole blood cells [3]: increases
42 | Cc1ncsc1C [4,5-Dimethylthiazole] | increases | increase | ratio of monocytes in the whole blood cells [2]: increases
43 | CSC1CSC=N1 (centres unmarked) [4-(Methylthio)-2-thiazoline] | increases | increase | ratio of monocytes in the whole blood cells [2]: increases
44 | CC(=O)c1ccncc1 [4-Acetylpyridine] | increases | increase | number of monocytes in the peripheral blood [6]: increase; ratio of monocytes in the whole blood cells [2]: increases
45 | C=CCCCN=C=S [4-Pentenyl Isothiocyanate] | increases | increase | 
46 | Cc1nc(C(C)(C)C)cs1 [4-tert-Butyl-2-methylthiazole] |  | increase | 
47 | CC(=O)c1sc(C)nc1C [5-Acetyl-2,4-dimethylthiazole] | increases | increase | ratio of basophils in the whole blood cells [3]: increases
48 | C=CCN=C=S [Allyl isothiocyanate] | increases | increase | number of monocytes in the peripheral blood [6]: increases; ratio of monocytes in the whole blood cells [2]: increases
49 | C1CCCNCC1 [Azepane] | increases | increase | ratio of monocytes in the whole blood cells [2]: increases
50 | c1ccc2sccc2c1 [Benzothiophene] | increases | increase | 
51 | S=C=NCc1ccccc1 [Benzyl isothiocyanate] | increases | increase | 
52 | CC(C)N=C=S [Isopropyl isothiocyanate] |  | increase | 
53 | C=C(C)CN=C=S [Methallyl isothiocyanate] | increases | increase | 
54 | c1cscn1 [Thiazole] | increases |  | 
55 | O=C1CSC(=O)N1 [Thiazolidine-2,4-dione] |  | increase | 
56 | C1CSCCN1 [Thiomorpholine] |  |  | ratio of monocytes in the whole blood cells [2]: increases
